In ChEMBL document CHEMBL1201862, “PubChem BioAssay data set” (2004):
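1) Cells in 96-well plates. 2) Compound, 48 h, 5 concentrations. 3) Linear interpolation between surrounding doses. 4) Unreached endpoint = highest concentration. The concentration for 50% growth inhibition is given as GI50.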 The source made the active and inactive calls. No stated cut-off is given here; in the data, active = GI50 up to about 1.1 µM and inactive = higher.

Tests used:
Experiment in all cases: DTP human tumour cell line panel, 48 h
BT-549 = test system: BT-549
DU-145 = test system: DU-145
HCT-116 = test system: HCT-116
HT-29 = test system: HT-29
K562 = test system: K562
KM12 = test system: KM12
LOX IMVI = test system: LOX IMVI
MCF7 = test system: MCF7
MDA-MB-435 = test system: MDA-MB-435
OVCAR-5 = test system: OVCAR-5
SF-539 = test system: SF-539
SK-MEL-28 = test system: SK-MEL-28
SK-MEL-2 = test system: SK-MEL-2
SR = test system: SR
U-251 = test system: U-251
UACC-257 = test system: UACC-257
UACC-62 = test system: UACC-62
UO-31 = test system: UO-31
HCC 2998 = test system: HCC 2998

Row | Structure (SMILES) | GI50 (BT-549) | GI50 (DU-145) | GI50 (HCT-116) | GI50 (HT-29) | GI50 (K562) | GI50 (KM12) | GI50 (LOX IMVI) | GI50 (MCF7) | GI50 (MDA-MB-435) | GI50 (OVCAR-5) | GI50 (SF-539) | GI50 (SK-MEL-28) | GI50 (SK-MEL-2) | GI50 (SR) | GI50 (U-251) | GI50 (UACC-257) | GI50 (UACC-62) | GI50 (UO-31) | GI50 (HCC 2998)
1 | CN(C)CCCN1c2ccccc2Sc2cnccc21 | > 100 µM (inactive) | > 100 µM (inactive) | 43.7 µM (inactive) | 58.6 µM (inactive) | 68.5 µM (inactive) | > 100 µM (inactive) | 65.2 µM (inactive) | 61 µM (inactive) | 69.7 µM (inactive) | > 100 µM (inactive) | 54.6 µM (inactive) | 39.1 µM (inactive) | 28.4 µM (inactive) | 34.2 µM (inactive) | > 100 µM (inactive) | 19.7 µM (inactive) | 38.5 µM (inactive) | > 100 µM (inactive) | –
2 | O=C(NCCCCNCCCNC(=O)c1ccccc1)c1ccccc1 | > 100 µM (inactive) | > 100 µM (inactive) | > 100 µM (inactive) | > 100 µM (inactive) | > 100 µM (inactive) | > 100 µM (inactive) | – | > 100 µM (inactive) | > 100 µM (inactive) | > 100 µM (inactive) | > 100 µM (inactive) | > 100 µM (inactive) | > 100 µM (inactive) | > 100 µM (inactive) | > 100 µM (inactive) | > 100 µM (inactive) | > 100 µM (inactive) | > 100 µM (inactive) | > 100 µM (inactive)
3 | CCN(C(=O)/C=C/c1ccco1)c1ccccc1 | > 100 µM (inactive) | > 100 µM (inactive) | > 100 µM (inactive) | > 100 µM (inactive) | 46.2 µM (inactive) | > 100 µM (inactive) | > 100 µM (inactive) | > 100 µM (inactive) | > 100 µM (inactive) | > 100 µM (inactive) | – | > 100 µM (inactive) | > 100 µM (inactive) | 46.2 µM (inactive) | > 100 µM (inactive) | > 100 µM (inactive) | > 100 µM (inactive) | > 100 µM (inactive) | > 100 µM (inactive)
4 | Cc1cn([C@H]2C[C@](C)(CO)N(C)O2)c(=O)[nH]c1=O | > 100 µM (inactive) | > 100 µM (inactive) | > 100 µM (inactive) | > 100 µM (inactive) | > 100 µM (inactive) | > 100 µM (inactive) | > 100 µM (inactive) | > 100 µM (inactive) | > 100 µM (inactive) | > 100 µM (inactive) | – | > 100 µM (inactive) | > 100 µM (inactive) | > 100 µM (inactive) | > 100 µM (inactive) | > 100 µM (inactive) | > 100 µM (inactive) | > 100 µM (inactive) | > 100 µM (inactive)
5 | NNC(=O)Cn1ccnn1 | > 100 µM (inactive) | > 100 µM (inactive) | – | > 100 µM (inactive) | > 100 µM (inactive) | > 100 µM (inactive) | > 100 µM (inactive) | > 100 µM (inactive) | > 100 µM (inactive) | > 100 µM (inactive) | – | > 100 µM (inactive) | > 100 µM (inactive) | > 100 µM (inactive) | > 100 µM (inactive) | > 100 µM (inactive) | – | – | > 100 µM (inactive)
6 | FC(F)(F)c1nc2nc(Cl)c(Cl)nc2n1CCCN1CCOCC1 | 56 µM (inactive) | 24.9 µM (inactive) | 41.9 µM (inactive) | 66.8 µM (inactive) | 14.2 µM (inactive) | > 100 µM (inactive) | 30.4 µM (inactive) | 53.1 µM (inactive) | 44.9 µM (inactive) | > 100 µM (inactive) | 72.4 µM (inactive) | 33.7 µM (inactive) | 37.9 µM (inactive) | 0.489 µM (active) | 65.9 µM (inactive) | 24 µM (inactive) | 50.6 µM (inactive) | – | –
7 | CC1=NN(c2ccccc2)C(=O)C1/N=N/c1ccc(S(N)(=O)=O)cc1 (stereo not drawn) | > 100 µM (inactive) | > 100 µM (inactive) | > 100 µM (inactive) | > 100 µM (inactive) | > 100 µM (inactive) | > 100 µM (inactive) | > 100 µM (inactive) | > 100 µM (inactive) | > 100 µM (inactive) | > 100 µM (inactive) | > 100 µM (inactive) | > 100 µM (inactive) | > 100 µM (inactive) | > 100 µM (inactive) | > 100 µM (inactive) | > 100 µM (inactive) | > 100 µM (inactive) | > 100 µM (inactive) | –
8 | O=c1[nH]c2cc(F)c(F)cc2nc1Cc1ccccc1 | > 100 µM (inactive) | > 100 µM (inactive) | > 100 µM (inactive) | > 100 µM (inactive) | 30 µM (inactive) | > 100 µM (inactive) | > 100 µM (inactive) | > 100 µM (inactive) | > 100 µM (inactive) | – | > 100 µM (inactive) | > 100 µM (inactive) | > 100 µM (inactive) | > 100 µM (inactive) | > 100 µM (inactive) | > 100 µM (inactive) | > 100 µM (inactive) | > 100 µM (inactive) | > 100 µM (inactive)
9 | O=C1Cc2c([nH]c3c(Cl)cccc23)-c2ccccc2N1 | > 100 µM (inactive) | > 100 µM (inactive) | > 100 µM (inactive) | > 100 µM (inactive) | > 100 µM (inactive) | > 100 µM (inactive) | > 100 µM (inactive) | > 100 µM (inactive) | > 100 µM (inactive) | > 100 µM (inactive) | > 100 µM (inactive) | > 100 µM (inactive) | – | > 100 µM (inactive) | > 100 µM (inactive) | – | > 100 µM (inactive) | > 100 µM (inactive) | –
10 | CC(=O)CSc1c(-c2ccccc2)c(=O)n(-c2ccccc2)c(=S)n1-c1ccccc1 | > 100 µM (inactive) | > 100 µM (inactive) | > 100 µM (inactive) | > 100 µM (inactive) | > 100 µM (inactive) | > 100 µM (inactive) | > 100 µM (inactive) | > 100 µM (inactive) | > 100 µM (inactive) | > 100 µM (inactive) | – | > 100 µM (inactive) | > 100 µM (inactive) | > 100 µM (inactive) | > 100 µM (inactive) | > 100 µM (inactive) | > 100 µM (inactive) | > 100 µM (inactive) | –
11 | NNC(=O)c1ccc(-n2nnc(C(=O)NN)c2C(=O)NN)cc1 | > 100 µM (inactive) | > 100 µM (inactive) | > 100 µM (inactive) | > 100 µM (inactive) | > 100 µM (inactive) | > 100 µM (inactive) | > 100 µM (inactive) | > 100 µM (inactive) | > 100 µM (inactive) | > 100 µM (inactive) | – | > 100 µM (inactive) | > 100 µM (inactive) | > 100 µM (inactive) | > 100 µM (inactive) | > 100 µM (inactive) | – | > 100 µM (inactive) | > 100 µM (inactive)
12 | O=C1CCCCCCCCCCC1CN1CCOCC1 (stereo not drawn) | > 100 µM (inactive) | > 100 µM (inactive) | > 100 µM (inactive) | – | > 100 µM (inactive) | > 100 µM (inactive) | – | > 100 µM (inactive) | > 100 µM (inactive) | > 100 µM (inactive) | > 100 µM (inactive) | > 100 µM (inactive) | – | > 100 µM (inactive) | > 100 µM (inactive) | > 100 µM (inactive) | > 100 µM (inactive) | > 100 µM (inactive) | > 100 µM (inactive)
13 | CC(C)(C)OC(=O)NCC(=O)NC1CC=CCC1NC(=O)CNC(=O)OC(C)(C)C (stereo not drawn) | > 100 µM (inactive) | > 100 µM (inactive) | > 100 µM (inactive) | > 100 µM (inactive) | > 100 µM (inactive) | > 100 µM (inactive) | > 100 µM (inactive) | > 100 µM (inactive) | > 100 µM (inactive) | > 100 µM (inactive) | > 100 µM (inactive) | > 100 µM (inactive) | – | > 100 µM (inactive) | > 100 µM (inactive) | > 100 µM (inactive) | > 100 µM (inactive) | > 100 µM (inactive) | > 100 µM (inactive)
14 | Cc1ccc(S(=O)(=O)OC2CC(C(C)(C)C)CCC2c2ccccc2)cc1 (stereo not drawn) | > 100 µM (inactive) | > 100 µM (inactive) | 50 µM (inactive) | 32.1 µM (inactive) | 53.5 µM (inactive) | 99.8 µM (inactive) | > 100 µM (inactive) | 35.1 µM (inactive) | 66.1 µM (inactive) | > 100 µM (inactive) | > 100 µM (inactive) | > 100 µM (inactive) | > 100 µM (inactive) | 23.6 µM (inactive) | 50.1 µM (inactive) | 29 µM (inactive) | 57.5 µM (inactive) | > 100 µM (inactive) | –
15 | N#CCc1nc(-c2cc3c(ccc4ccccc43)oc2=O)cs1 | 17.1 µM (inactive) | 23.9 µM (inactive) | 54.3 µM (inactive) | 73.1 µM (inactive) | > 100 µM (inactive) | 33.6 µM (inactive) | > 100 µM (inactive) | 38.3 µM (inactive) | > 100 µM (inactive) | > 100 µM (inactive) | 21.5 µM (inactive) | 72.6 µM (inactive) | 23.1 µM (inactive) | – | 18.9 µM (inactive) | 26.9 µM (inactive) | 21.7 µM (inactive) | 38.9 µM (inactive) | 69.3 µM (inactive)
16 | COc1cc(NS(C)(=O)=O)ccc1NCc1c[nH]c2ccc3nc(C)ccc3c12 | > 100 µM (inactive) | 32.1 µM (inactive) | 42.9 µM (inactive) | 49.5 µM (inactive) | 0.594 µM (active) | 48.9 µM (inactive) | 49.5 µM (inactive) | 36.1 µM (inactive) | 30.2 µM (inactive) | 39.5 µM (inactive) | 78.2 µM (inactive) | > 100 µM (inactive) | 23.8 µM (inactive) | 4.89 µM (inactive) | 77.6 µM (inactive) | 47.8 µM (inactive) | 40.6 µM (inactive) | 28.6 µM (inactive) | –
